Results on 72 compounds are retold here after the OPERA property sets (Mansouri et al. 2018).

Conditions in the first data set: not given
In the case of `OCc1cccc2ccccc12`, the boiling point is 304 °C, the log10 Koc (L/kg) is 2.17 and the melting point amounted to 64 °C.

On to `C=C(C)[C@@H]1CC=C(C)C(=O)C1`, for which the log10 vapour pressure (mmHg) was -0.988.

In turn, `FCCCCCCl` displayed a boiling point of 143 °C.

In turn, `CS(=O)(=O)c1ccc(C(=O)O)cc1` yielded a melting point of 270 °C.

`CC(C)C(Cl)Cl` displayed a boiling point of 106 °C and a log10 vapour pressure (mmHg) of 1.6.

The compound `CCC=C(C)C` showed a boiling point of 67.3 °C, a log10 vapour pressure (mmHg) of 2.2 and a melting point of -135 °C.

Consider `Oc1ccc(-c2ccccc2)cc1`, for which the boiling point came out at 305 °C, the melting point was found to be 166 °C and the ready biodegradability entry is “not readily biodegradable”.

In turn, `FC(F)(F)C(Cl)=CCl` showed a boiling point of 53.7 °C and a melting point of -109 °C.

`CCc1c(C)cccc1C` had a boiling point of 190 °C, a log10 vapour pressure (mmHg) of -0.132 and a melting point of -16.2 °C.

In turn, `C=C(Cl)C#N` came in with a boiling point of 88.5 °C and a melting point of -65 °C.

As for `CC[N+](C)(C)CCN(C)CC[N+](C)(C)CC.[Br-].[Br-]`, the melting point is 214 °C.

The compound `O=C(NC(=O)c1c(F)cccc1F)Nc1cc(Cl)c(Oc2ncc(C(F)(F)F)cc2Cl)c(Cl)c1` showed a log10 Henry constant (atm·m³/mol) of -11.7.

With `c1cncc([C@@H]2CCCCN2)c1`, the boiling point stood at 276 °C and the melting point was 9 °C.

The compound `CCC(C)Oc1ccccc1` (stereo not given) returned a boiling point of 194 °C.

Turning to `N#Cc1cc(I)c(O)c(I)c1`, the melting point is 212 °C and the ready biodegradability entry is recorded as “not readily biodegradable”.

Consider `CC(C)COC(=O)c1ccccc1`, for which the boiling point was 242 °C.

For `FC(F)(F)C(F)(F)C(F)(F)N(C(F)(F)C(F)(F)C(F)(F)F)C(F)(F)C(F)(F)C(F)(F)F`, the boiling point stood at 130 °C and the melting point was -52 °C.

Take `N#CCON=C(C#N)c1ccccc1`: the log10 vapour pressure (mmHg) was -0.457 and the melting point was found to be 55 °C.

Turning to `SCc1ccccc1`, the boiling point was 194 °C, the log10 vapour pressure (mmHg) was -0.384 and the melting point is -30 °C.

`COc1cc2c(cc1O)CCN[C@@H]2C` displayed a melting point of 222 °C.

`C=CI` showed a boiling point of 56 °C.

Compound `O=S(=O)(O)c1ccc2ccc(S(=O)(=O)O)cc2c1` gave a melting point of 199 °C.

Regarding `CCOC(=O)C1(C(=O)OCC)CC1`, the boiling point worked out at 216 °C.

As to `c1ccc2cc(Nc3ccc4ccccc4c3)ccc2c1`, the boiling point amounted to 471 °C and the melting point was determined as 172 °C.

In the case of `CC(=NO)c1ccccc1`, the boiling point stood at 245 °C and the melting point came out at 60 °C.

In the case of `CC(=O)c1cc2c(cc1C)C(C)(C)C(C)CC2(C)C` (stereo not given), the melting point came out at 54.5 °C.

The compound `COC(=O)c1c(C(F)F)nc(C(F)(F)F)c(C2=NCCS2)c1CC(C)C` registered a log10 vapour pressure (mmHg) of -5.65 and a melting point of 78 °C.

`COc1ccc2[nH]c3c(c2c1)CCNC3C` (stereo not given): the melting point was found to be 150 °C.

The compound `O=C1CCCN1CCO` displayed a boiling point of 295 °C and a melting point of 20 °C.

`CCCCON=O` registered a boiling point of 78 °C.

In the case of `Cc1ccc[nH]c1=O`, the boiling point is 289 °C and the melting point was 142 °C.

As for `O=C(O)COc1ccc2ccccc2c1`, the melting point turned out to be 156 °C.

`CC(CC=O)CCCC(C)(C)O` (stereo not given) came in with a boiling point of 241 °C.

Compound `COP(=S)(OC)Oc1ccc([N+](=O)[O-])cc1` had a log10 Henry constant (atm·m³/mol) of -7, a log10 Koc (L/kg) of 3, a log10 vapour pressure (mmHg) of -5.46 and a melting point of 35.5 °C.

The compound `CCC1Nc2cc(Cl)c(S(N)(=O)=O)cc2S(=O)(=O)N1` (stereo not given) gave a melting point of 270 °C.

As for `O=C(O)CN(CCN(CC(=O)O)CC(=O)O)CC(=O)O`, the log10 vapour pressure (mmHg) is -11.8 and the ready biodegradability result is given as “not readily biodegradable”.

With `CC(N)(CO)CO`, the melting point stood at 110 °C.

In the case of `O=C(Nc1ccccc1)C(=O)Nc1ccccc1`, the melting point came out at 254 °C.

`Clc1cc(Cl)cc(C2(CC(Cl)(Cl)Cl)CO2)c1` (stereo not given) displayed a log10 Koc (L/kg) of 3.75 and a melting point of 42.8 °C.

As for `CCC(C)CC(C)N` (stereo not given), the boiling point came out at 132 °C.

`O=[N+]([O-])c1ccc(-c2ccccc2[N+](=O)[O-])cc1` displayed a melting point of 93.5 °C.

`Cc1c(N)cccc1[N+](=O)[O-]` returned a boiling point of 305 °C and a melting point of 92 °C.

The compound `C1CC2CCCC(C1)C2` had a boiling point of 170 °C and a melting point of 146 °C.

Regarding `Clc1cc2cc(Cl)c(Cl)cc2cc1Cl`, the log10 Koa came out at 8.45.

Take `O=C(O)Cc1c(-c2ccccc2)c(-c2ccccc2)nn1-c1ccccc1`: the melting point came to 200 °C.

For the compound `COc1cccc(Cl)n1`, the boiling point is 186 °C.

`COc1cc(/C=C/C(=O)CC(=O)/C=C/c2ccc(O)c(OC)c2)ccc1O`: the melting point was 183 °C.

`CCCC(=O)O[C@H]1[C@H](C)O[C@@H](O[C@H]2[C@H](N(C)C)[C@@H](O)[C@H](O[C@H]3[C@@H](CC=O)C[C@@H](C)[C@@H](O)C=CC=CC[C@@H](C)OC(=O)C[C@@H](O)[C@@H]3OC)O[C@@H]2C)C[C@@]1(C)OC(=O)CC` returned a melting point of 116 °C.

`S=P(N1CC1)(N1CC1)N1CC1` gave a melting point of 51.5 °C.

Compound `N=C(N)c1ccc(C=Cc2ccc(C(=N)N)cc2O)cc1` came in with a melting point of 235 °C.

In the case of `OCCCCO`, the boiling point amounted to 235 °C, the log10 vapour pressure (mmHg) was -1.98, the melting point came to 20.4 °C and the ready biodegradability result is recorded as “readily biodegradable”.

In the case of `Nc1ncnc(Nc2ccccc2)n1`, the melting point was 236 °C.

In the case of `O=[N+]([O-])c1cccc(CO)c1`, the melting point was 30.5 °C.

For the compound `CCCCCCCCCC=CC(=O)O`, the melting point worked out at 17.1 °C.

Take `CCCCCC=CC(C)C`: the boiling point came to 161 °C.

For the compound `C=CC(C)CCC=C(C)C` (stereo not given), the ready biodegradability entry is “readily biodegradable”.

`N#CCC(=O)NN` registered a melting point of 114 °C.

With `CN1CCN(C2=Nc3ccccc3Sc3ccc(Cl)cc32)CC1`, the melting point amounted to 119 °C.

Take `CCCCCCCCCCCCS(=O)(=O)O`: the ready biodegradability entry is “readily biodegradable”.

In turn, `NC(=O)Nc1cccc(C(F)(F)F)c1` displayed a log10 Koc (L/kg) of 1.98.

`FC(F)(F)C(F)(F)C(F)(F)C(F)(F)I` returned a boiling point of 67 °C and a melting point of -68 °C.

`ClCC(Cl)C(Cl)(Cl)Cl` (stereo not given) came in with a boiling point of 180 °C.

For the compound `C=C(C)CCCCCC`, the boiling point was 145 °C and the melting point was -77.8 °C.

Consider `CCCCCCCCl`, for which the boiling point amounted to 159 °C, the log10 vapour pressure (mmHg) came to 0.451 and the melting point is -69.5 °C.

`FC(F)(F)c1nc2c(Cl)c(Cl)ccc2[nH]1`: the melting point worked out at 214 °C.

Turning to `CCC(O)CO` (stereo not given), the boiling point is 194 °C, the log10 vapour pressure (mmHg) is -1.3 and the ready biodegradability result is reported as “readily biodegradable”.

As for `CNC(=O)Oc1cccc(N=CN(C)C)c1`, the log10 Koc (L/kg) is 2.44.

As to `Nc1cccc2cccnc12`, the melting point turned out to be 70 °C.

`CCOC(=O)c1ccccc1C(=O)OCC`: the boiling point is 295 °C, the log10 Koc (L/kg) stood at 1.84, the log10 vapour pressure (mmHg) is -2.68 and the melting point is -40.5 °C. For the same compound, the ready biodegradability entry is “not readily biodegradable”.

For `CCCC(CC)C1(CC)C(=O)NC(=O)NC1=O` (stereo not given), the melting point turned out to be 122 °C.

As to `CC(=O)c1ccc(C)cc1`, the boiling point was 226 °C, the melting point was found to be 28 °C and the ready biodegradability entry is listed as “readily biodegradable”.

Consider `Cl/C=C/Cl`, for which the ready biodegradability entry is listed as “not readily biodegradable”.

Staying with this data set, now noted: fish.
On to `Oc1ccc(-c2ccccc2)cc1`, for which the log10 BCF was determined as 1.59 and the log10 biotransformation half-life (days) is -0.81.

As for `COP(=S)(OC)Oc1ccc([N+](=O)[O-])cc1`, the log10 BCF came out at 1.93 and the log10 biotransformation half-life (days) was 0.55.
